Measured values as given in US9296747B1, “Piperidylpyrimidine derivatives as modulators of protein kinase inhibitors and of vascular endothelial growth factor receptor 2” (Allergan, Inc., priority 2014, dated 2016).
pIC50: −log10 of the molar value.

Key:
[1] = molecular target: VEGFR2 (purified cytoplasmic domain KDR protein) (Homo sapiens (Human), UniProt P35968); experiment: VEGFR2 Kinase Assay (biochemical KDR kinase, poly-Glu-Tyr ELISA); conditions: 2.7 μM ATP, 15 minute incubation at 30° C.
Chain of VEGFR2 (purified cytoplasmic domain KDR protein) (P35968 786-1356): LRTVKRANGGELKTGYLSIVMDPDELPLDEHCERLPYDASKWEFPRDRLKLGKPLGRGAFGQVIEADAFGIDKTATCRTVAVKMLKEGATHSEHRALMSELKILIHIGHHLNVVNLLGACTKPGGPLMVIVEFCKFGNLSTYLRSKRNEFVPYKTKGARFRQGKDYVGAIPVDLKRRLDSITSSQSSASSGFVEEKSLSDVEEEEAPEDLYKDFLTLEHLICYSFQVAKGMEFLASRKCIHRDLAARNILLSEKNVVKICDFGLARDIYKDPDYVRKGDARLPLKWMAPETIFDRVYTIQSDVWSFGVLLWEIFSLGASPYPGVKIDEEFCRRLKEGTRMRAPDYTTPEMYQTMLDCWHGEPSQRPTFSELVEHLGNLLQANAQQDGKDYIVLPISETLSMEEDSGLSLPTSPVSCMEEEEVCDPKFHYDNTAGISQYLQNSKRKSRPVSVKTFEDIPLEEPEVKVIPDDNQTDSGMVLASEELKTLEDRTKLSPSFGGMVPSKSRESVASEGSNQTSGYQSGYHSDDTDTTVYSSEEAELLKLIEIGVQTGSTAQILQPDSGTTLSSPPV
Protocol: VEGFR2 Kinase Assay […] Test compounds were reconstituted in 100% DMSO and added to the reaction to give a final DMSO concentration of 5%. […] Following a 15 minute incubation at 30° C., the reactions were washed 2 mls per well PBS-T. 100 μl of a monoclonal anti-phosphotyrosine antibody-peroxidase conjugate diluted 1:10,000 in PBS-T was added to the wells for 30 minutes. Following a 2 mls per well wash with PBS-Tween-20, 100 μl of 0-Phenylenediamine Dihydrochloride in phosphate-citrate buffer, containing urea hydrogen peroxide, was added to the wells for 7-10 minutes as a colorimetric substrate for the peroxidase. The reaction was terminated by the addition of 100 μl of 2.5N H2SO4 to each well and read using a microplate ELISA reader set at 492 nm. IC50 values for compound inhibition were calculated directly from graphs of optical density (arbitrary units) versus compound concentration following subtraction of blank values.

[2] = molecular target: recombinant human GST-PKR (Homo sapiens (Human), UniProt P19525); experiment: PKR KinaseGlo Assay; type: biochemical; conditions: 6.6 uM ATP, 10 minutes at room temperature
Chain of recombinant human GST-PKR (P19525 whole entry): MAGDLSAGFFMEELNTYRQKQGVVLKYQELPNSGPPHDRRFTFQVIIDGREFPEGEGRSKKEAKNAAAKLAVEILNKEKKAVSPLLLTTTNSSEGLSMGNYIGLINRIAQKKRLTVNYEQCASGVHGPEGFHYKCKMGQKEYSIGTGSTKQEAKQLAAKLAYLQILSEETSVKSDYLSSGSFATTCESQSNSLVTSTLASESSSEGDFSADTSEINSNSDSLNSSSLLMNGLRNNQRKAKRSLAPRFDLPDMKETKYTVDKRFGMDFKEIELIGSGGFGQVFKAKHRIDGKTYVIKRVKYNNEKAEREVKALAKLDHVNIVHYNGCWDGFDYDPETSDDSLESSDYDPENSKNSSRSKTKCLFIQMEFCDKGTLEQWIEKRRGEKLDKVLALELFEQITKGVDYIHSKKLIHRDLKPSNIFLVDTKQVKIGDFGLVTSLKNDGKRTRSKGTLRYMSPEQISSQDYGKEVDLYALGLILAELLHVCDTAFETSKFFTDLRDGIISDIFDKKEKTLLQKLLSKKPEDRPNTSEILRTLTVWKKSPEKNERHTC
Protocol: Commercially available recombinant human GST-PKR (SignalChem, Canada; 1.5 uM-2 uM stock) is diluted to 500 nM in assay buffer (20 mM Tris-HCl, pH 7.2, 10 mM KCl, 10 mM MgCl2, 10% glycerol). Preactivated PKR is dispensed to 384/96-well black plates at 3.125/12.5 uls/well using the liquid handler Janus. Appropriate dilutions of inhibitors are added to 384/96-well plate followed by 6.6 uM ATP (final) and incubated for 10 minutes at room temperature. The remaining ATP/well is determined by adding 6.25/25 uls/well Kinase-Glo assay mix (Promega) and luminescence is measured on EnVision luminescence plate reader (integration time, 0.2 sec; Perkin-Elmer, Massachusetts, USA). The % inhibition for the compounds is calculated using ATP only (100% inhibition) and PKR+ATP (0% inhibition). […] values are determined by plotting % activity versus inhibitor concentration. Curves are fitted using Activity base XLfit (IDBS, UK) using the formula— • 4 Parameter Logistic Model fit=(A+((B−A)/(1+(10^((C−x)*D))))) inv=(C−(log(((B−A)/(y−A))−1)/D)) res=(y−fit)

[3] = molecular target: PDGFRβ (purified cytoplasmic domain PDGFR-b protein) (Homo sapiens (Human), UniProt P09619); experiment: PDGFRβ Kinase Assay (biochemical, poly-Glu-Tyr ELISA); conditions: 36 μM ATP, 60 minute incubation at 30° C.
Chain of PDGFRβ (purified cytoplasmic domain PDGFR-b protein) (P09619 554-1106): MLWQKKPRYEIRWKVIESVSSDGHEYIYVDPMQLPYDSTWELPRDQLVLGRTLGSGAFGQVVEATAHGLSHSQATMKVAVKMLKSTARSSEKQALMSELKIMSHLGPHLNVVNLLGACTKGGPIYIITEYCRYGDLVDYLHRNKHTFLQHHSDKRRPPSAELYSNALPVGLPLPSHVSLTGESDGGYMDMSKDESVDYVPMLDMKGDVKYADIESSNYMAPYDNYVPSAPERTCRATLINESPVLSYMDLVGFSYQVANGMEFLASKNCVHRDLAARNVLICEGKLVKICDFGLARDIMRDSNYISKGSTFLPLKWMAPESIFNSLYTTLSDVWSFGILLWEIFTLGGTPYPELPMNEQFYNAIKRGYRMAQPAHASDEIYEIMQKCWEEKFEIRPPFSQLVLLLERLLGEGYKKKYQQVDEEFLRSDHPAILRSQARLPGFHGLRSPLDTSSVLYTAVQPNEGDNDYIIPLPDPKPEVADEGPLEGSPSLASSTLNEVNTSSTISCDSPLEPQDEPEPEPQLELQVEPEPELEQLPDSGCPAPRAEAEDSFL
Protocol: Biochemical PDGFRβ kinase assays were performed in 96 well microtiter plates that were coated overnight with 75 μg of poly-Glu-Tyr (4:1) in 10 mM Phosphate Buffered Saline (PBS), pH 7.4. The coated plates were washed with 2 mls per well PBS+0.05% Tween-20 (PBS-T), blocked by incubation with PBS containing 1% BSA, then washed with 2 mls per well PBS-T prior to starting the reaction. Reactions were carried out in 100 μL reaction volumes containing 36 μM ATP in kinase buffer (50 mM Hepes buffer pH 7.4, 20 mM MgCl2, 0.1 mM MnCl2 and 0.2 mM Na3VO4). Test compounds were reconstituted in 100% DMSO and added to the reaction to give a final DMSO concentration of 5%. Reactions were initiated by the addition 20 ul per well of kinase buffer containing 200-300 ng purified cytoplasmic domain PDGFR-b protein (Millipore). Following a 60 minute incubation at 30° C., the reactions were washed 2 mls per well PBS-T. 100 μl of a monoclonal anti-phosphotyrosine antibody-peroxidase conjugate diluted 1:10,000 in PBS-T was added to the wells for 30 minutes. Following a 2 mls per well wash with PBS-Tween-20, 100 μl of 0-Phenylenediamine Dihydrochloride in phosphate-citrate buffer, containing urea hydrogen peroxide, was added to the wells for 7-10 minutes as a colorimetric substrate for the peroxidase. The reaction was terminated by the addition of 100 μl of 2.5N H2SO4 to each well and read using a microplate ELISA reader set at 492 nm. IC50 values for compound inhibition were calculated directly from graphs of optical density (arbitrary units) versus compound concentration following subtraction of blank values.

Compound | pIC50 [1] | pIC50 [2] | pIC50 [3]
O=C(Nc1cccnc1)N1CCc2nc(Nc3ccccc3)ncc2C1 [Example 3, 2-anilino-N-pyridin-3-yl-7,8-dihydropyrido[4,3-d]pyrimidine-6(5H)-carboxamide] | < 5.00 | 6.55 | 
COc1ccc(Nc2ncc3c(n2)CCN(C(=O)c2cccnc2)C3)cc1 [Example 5, N-(4-methoxyphenyl)-6-(pyridin-3-ylcarbonyl)-5,6,7,8-tetrahydropyrido[4,3-d]pyrimidin-2-amine] | 8.30 | < 4.40 | 7.77
COc1cccc(Nc2ncc3c(n2)CCN(C(=O)c2cccnc2)C3)c1 [Example 6, N-(3-methoxyphenyl)-6-(pyridin-3-ylcarbonyl)-5,6,7,8-tetrahydropyrido[4,3-d]pyrimidin-2-amine] | 6.35 | < 4.40 | 
COc1ccccc1Nc1ncc2c(n1)CCN(C(=O)c1cccnc1)C2 [Example 7, N-(2-methoxyphenyl)-6-(pyridin-3-ylcarbonyl)-5,6,7,8-tetrahydropyrido[4,3-d]pyrimidin-2-amine] | 8.00 |  | 6.61
Cn1nccc1Nc1ncc2c(n1)CCN(C(=O)c1cccnc1)C2 [Example 8, N-(1-methyl-1H-pyrazol-5-yl)-6-(pyridin-3-ylcarbonyl)-5,6,7,8-tetrahydropyrido[4,3-d]pyrimidin-2-amine] | 7.80 |  | 6.89
COc1cc(Nc2ncc3c(n2)CCN(C(=O)c2occc2C)C3)cc(OC)c1OC [Example 11, 6-(3-methyl-2-furoyl)-N-(3,4,5-trimethoxyphenyl)-5,6,7,8-tetrahydropyrido[4,3-d]pyrimidin-2-amine] | 8.22 |  | 6.62
N-phenyl-6-(pyridin-3-ylcarbonyl)-5,6,7,8-tetrahydropyrido[4,3-d]pyrimidin-2-amine [Example 2] | < 4.00 | 7.05 | 

The next lines start with the values.

pIC50 [1] | pIC50 [2] | pIC50 [3] | Compound
8.30 |  | 7.72 | COc1cc(Nc2ncc3c(n2)CCN(C(=O)c2cc(C)nn2C)C3)cc(OC)c1OC [Example 12, 6-[(1,3-dimethyl-1H-pyrazol-5-yl)carbonyl]-N-(3,4,5-trimethoxyphenyl)-5,6,7,8-tetrahydropyrido[4,3-d]pyrimidin-2-amine]
8.10 |  |  | COc1cc(Nc2ncc3c(n2)CCN(C(=O)c2cccs2)C3)cc(OC)c1OC [Example 13, 6-(2-thienylcarbonyl)-N-(3,4,5-trimethoxyphenyl)-5,6,7,8-tetrahydropyrido[4,3-d]pyrimidin-2-amine]
5.73 | 5.55 |  | COc1cc(Nc2ncc3c(n2)CCN(C(=O)c2ccccn2)C3)cc(OC)c1OC [Example 15, 6-(pyridin-2-ylcarbonyl)-N-(3,4,5-trimethoxyphenyl)-5,6,7,8-tetrahydropyrido[4,3-d]pyrimidin-2-amine]
 | 6.75 |  | COc1ccc(Nc2ncc3c(n2)CCN(C(=O)c2cccnc2)C3)cc1OC [Example 16, N-(3,4-dimethoxyphenyl)-6-(pyridin-3-ylcarbonyl)-5,6,7,8-tetrahydropyrido[4,3-d]pyrimidin-2-amine]
 | 6.89 |  | COc1cc(Nc2ncc3c(n2)CCN(C(=O)c2cccnc2)C3)cc(OC)c1 [Example 17, N-(3,5-dimethoxyphenyl)-6-(pyridin-3-ylcarbonyl)-5,6,7,8-tetrahydropyrido[4,3-d]pyrimidin-2-amine]
